Counter-ions that a name gives are not always drawn.
How the values were obtained:
Format in all cases: cell-based
[1] = system: A. baumannii R674; experiment: Chequerboard combination efficacy of adjuvant with antibiotics
In short: (§1)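 Two-fold chequerboard broth microdilution of adjuvant plus antibiotic; 6 h cultures in peptone diluted to ~10^5 cfu/mL, incubated 24 h at 37 °C, 150 rpm, OD600 read. Wells matching media control define inhibitory concentrations; FIC index (FICantibiotic+FICadjuvant) and potentiation factor (MIC alone/MIC with adjuvant) calculated.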

[2] = system: K. pneumoniae R3934; experiment: as above
In short: as §1

[3] = system: A. baumannii R674; experiment: Bactericidal time-kill kinetics; conditions: combination of rifampicin and Compound 13 (4 μg/mL+2 μg/mL and 8 μg/mL+2 μg/mL)
Procedure: (§2) Briefly, A. baumannii R674 and P. aeruginosa R590 were grown in nutrient broth at 37° C. for 6 h. Combinations of Compound 13 and rifampicin (4 μg/mL+2 μg/mL and 8 μg/mL+2 μg/mL) and rifampicin alone (32 μg/mL) were inoculated with aliquots of A. baumannii R674 suspended in fresh media at ˜1.8×10^5 CFU/mL. Similarly, combination of […] and fusidic acid (8 μg/mL+1 μg/mL), Compound 15 (128 μg/mL) and fusidic acid (16 μg/mL) were inoculated with aliquots of P. aeruginosa R590 suspended in fresh media at ˜1.8×10^5 CFU/mL. After specified time intervals (0, 1, 2, 4, 6 and 12 h), 20 μL aliquots were serially diluted 10-fold in 0.9% saline, plated on sterile MacConkey agar plates and incubated at 37° C. overnight. The viable colonies were counted the next day and represented as logio (CFU/mL) (FIG. 1). Combination of rifampicin and Compound 13 could completely kill the bacteria in 2 h and combination of fusidic acid and Compound 14 could kill bacteria in 12 h.

[4] = system: P. aeruginosa R590; experiment: Bactericidal time-kill kinetics; conditions: combination with fusidic acid (8 μg/mL+1 μg/mL)
Procedure: as §2

Structure (SMILES) | MIC of antibiotic in presence of adjuvant ([1]; antibiotic Ampicillin) | FICI ([1]; antibiotic Ciprofloxacin) | MIC of antibiotic in presence of adjuvant ([1]; antibiotic Ciprofloxacin) | Potentiation factor ([1]; antibiotic Ciprofloxacin) | FICI ([1]; antibiotic Erythromycin) | MIC of antibiotic in presence of adjuvant ([1]; antibiotic Erythromycin) | Potentiation factor ([1]; antibiotic Erythromycin) | FICI ([1]; antibiotic Fusidic acid) | MIC of antibiotic in presence of adjuvant ([1]; antibiotic Fusidic acid) | Potentiation factor ([1]; antibiotic Fusidic acid) | FICI ([1]; antibiotic Linezolid) | MIC of antibiotic in presence of adjuvant ([1]; antibiotic Linezolid) | Potentiation factor ([1]; antibiotic Linezolid) | FICI ([1]; antibiotic Minocycline) | MIC of antibiotic in presence of adjuvant ([1]; antibiotic Minocycline) | Potentiation factor ([1]; antibiotic Minocycline) | FICI ([1]; antibiotic Rifampicin) | MIC of antibiotic in presence of adjuvant ([1]; antibiotic Rifampicin) | Potentiation factor ([1]; antibiotic Rifampicin) | MIC of antibiotic in presence of adjuvant ([1]; antibiotic Streptomycin) | also measured
NCCCC[C@H](N)C(=O)NCCCCCCN(CCCCCCNC(=O)[C@@H](N)CCCCN)C(=O)Cc1cccc2ccccc12 [Compound 13, N,N-bis-[(6-(^LLys)amido)hexyl] naphthyl ethanamide tetrakistrifluoroacetate] | No potentiation | 0.3125 | 64 µg/mL | 4 | 0.156 | 16 µg/mL | 32 | <0.023 | <0.5 µg/mL | >128 | 0.1875 | 32 µg/mL | 8 | 0.1875 | 0.5 µg/mL | 16 | 0.023 | 1 µg/mL | 64 | No potentiation | FICI ([1]; antibiotic Tetracycline): 0.375; MIC of antibiotic in presence of adjuvant ([1]; antibiotic Tetracycline): 16 µg/mL; Potentiation factor ([1]; antibiotic Tetracycline): 8; FICI ([1]; antibiotic Vancomycin): 0.5625; MIC of antibiotic in presence of adjuvant ([1]; antibiotic Vancomycin): 32 µg/mL; Potentiation factor ([1]; antibiotic Vancomycin): 2; FICI ([2]; antibiotic Fusidic acid): <0.133; MIC of antibiotic in presence of adjuvant ([2]; antibiotic Fusidic acid): 4 µg/mL; Potentiation factor ([2]; antibiotic Fusidic acid): 128; FICI ([2]; antibiotic Linezolid): <0.25; MIC of antibiotic in presence of adjuvant ([2]; antibiotic Linezolid): 64 µg/mL; Potentiation factor ([2]; antibiotic Linezolid): >8; FICI ([2]; antibiotic Minocycline): <0.07; MIC of antibiotic in presence of adjuvant ([2]; antibiotic Minocycline): 0.5 µg/mL; Potentiation factor ([2]; antibiotic Minocycline): 128; FICI ([2]; antibiotic Rifampicin): <0.064; MIC of antibiotic in presence of adjuvant ([2]; antibiotic Rifampicin): 1 µg/mL; Potentiation factor ([2]; antibiotic Rifampicin): 512; Time to completely kill the bacteria [3]: 2 h
NCCCC[C@H](N)C(=O)NCCCCCCN(CCCCCCNC(=O)[C@@H](N)CCCCN)C(=O)CC(c1ccccc1)c1ccccc1 [Compound 14, N,N-bis-[(6-(^LLys)amido)hexyl] 3,3-diphenyl propanamide tetrakis trifluoroacetate] | No potentiation | <0.281 | 64 µg/mL | 4 | <0.0625 | 16 µg/mL | 32 | <0.012 | <0.5 µg/mL | >128 | <0.156 | 32 µg/mL | 8 | <0.129 | 1 µg/mL | 8 | <0.017 | <0.125 µg/mL | >512 | No potentiation | FICI ([1]; antibiotic Tetracycline): <0.25; MIC of antibiotic in presence of adjuvant ([1]; antibiotic Tetracycline): 16 µg/mL; Potentiation factor ([1]; antibiotic Tetracycline): 8; FICI ([1]; antibiotic Vancomycin): <0.3125; MIC of antibiotic in presence of adjuvant ([1]; antibiotic Vancomycin): 16 µg/mL; Potentiation factor ([1]; antibiotic Vancomycin): 4; FICI ([2]; antibiotic Fusidic acid): <0.1289; MIC of antibiotic in presence of adjuvant ([2]; antibiotic Fusidic acid): 2 µg/mL; Potentiation factor ([2]; antibiotic Fusidic acid): 256; FICI ([2]; antibiotic Linezolid): <0.1328; MIC of antibiotic in presence of adjuvant ([2]; antibiotic Linezolid): 64 µg/mL; Potentiation factor ([2]; antibiotic Linezolid): >8; FICI ([2]; antibiotic Minocycline): <0.1328; MIC of antibiotic in presence of adjuvant ([2]; antibiotic Minocycline): 0.5 µg/mL; Potentiation factor ([2]; antibiotic Minocycline): 128; FICI ([2]; antibiotic Rifampicin): <0.126; MIC of antibiotic in presence of adjuvant ([2]; antibiotic Rifampicin): 0.5 µg/mL; Potentiation factor ([2]; antibiotic Rifampicin): 1024; Time to kill bacteria [4]: 12 h

From patent publication US20220323383A1, “SMALL-MOLECULAR ADJUVANTS AND IMPLEMENTATIONS THEREOF” (JAWAHARLAL NEHRU CENTRE FOR ADVANCED SCIENTIFIC RESEARCH, priority 2019, published 2022)
